# Experimental data published in patent US6043219A, “Broad spectrum chemotherapeutic peptide” (Kansas State University Research Foundation, priority 1997, dated 2000).
# “Also recorded” adds a separate entry of the source.
# Experiments:
# [1] = Stability of BacR1: residual activity by bactericidal assay (plate method) after treatments; assay type: physicochemical
# Procedure: 7A, p. 315-422. […] Appl. Microbiol. 21:943].
# The stability of BacR1 was assessed by determining the activity of BacR1 by bactericidal assay (plate method) after exposure to various temperatures, environmental conditions, and enzymes (Table 2). Solutions of finally purified BacR1 at a concentration of 640 AU/ml were used in these stability experiments. BacR1 samples were held at various temperatures for 15 min, were held at pHs ranging from 3 to 11 at room temperature for 1 h, were incubated in 6M urea at room temperature for 1 h, or were incubated with 1 mg/ml of enzyme at room temperature for 1 h.
# [2] = Preparative isoelectric focusing (Rotofor); assay type: physicochemical; settings: ammonium sulfate-precipitated culture supernatant, ampholytes pH 3-10, fractions 15 through 17
# Procedure: Isoelectric focusing of ammonium sulfate-precipitated culture supernatants of S. aureus UT0007 was carried out on a Rotofor isoelectric focusing cell (Bio-Rad, Richmond, Calif.) in order to define certain biophysical characteristics of BacR1. Concentrated culture supernatants were dialyzed overnight in 3,500 molecular-weight-cutoff dialysis tubing (SpectraPor, Los Angeles, Calif.) against 4 L distilled water at 4° C. The dialyzed sample was centrifuged at 9,000× g for 10 min at 4° C. to remove insoluble material, and the supernatant was diluted to a total volume of 55 ml with distilled water. Ampholytes (pH 3-10) (Fisher, St. Louis, Mo.) were added to a final concentration of 1% and the sample was loaded into the Rotofor cell for focusing at 12 W constant power at 4° C. The initial conditions were approximately 600 V and 35 mA; upon equilibrium the values were approximately 1200 V and 15 mA. Twenty individual fractions were harvested and the total protein, pH, and BacR1 activity for each fraction was determined.
# C. renale [3] = experiment: Effect of BacR1 on viability of C. renale (A550 and viable cell counts over time); assay type: cell-based, Corynebacterium renale
# Procedure: FIG. 9 includes a pair of graphs illustrating the effect of BacR1 on the viability C. renale; the A550 of a culture of control cells (-.circle-solid.-) and a culture of cells incubated with BacR1 at a concentration of 100 AU/ml (-.box-solid.-) was measured at respective times;
# FIG. 10 includes a pair of graphs illustrating the effect of BacR1 on the viability C. renale; viable cell counts for a culture of control cells (-.circle-solid.-) and a culture of cells incubated with BacR1 at a concentration of 100 AU/ml (-.box-solid.-) were determined at respective times.
# BacR1 kills C. renale in a dose-dependent fashion, with a MIC50 of approximately 6 AU/ml (FIG. 8). Furthermore, the killing is rapid in the absence of cell lysis as evidenced in FIGS. 9 and 10. No viable cells were detected after 120 min of exposure to BacR1. […] Such recovery would be observed with a bacteriostatic agent.
# C. renale [4] = experiment: SDS-PAGE bioassay (gel overlaid with top agar containing C. renale); assay type: cell-based, Corynebacterium renale; settings: finally purified BacR1
# From the text: Purified preparations of BacR1 were subjected to electrophoretic analysis by SDS-PAGE. After electrophoresis, gels were either silver stained (Blum et al. 1987. Electrophoresis 8:93-99) or bioassayed using a slight modification of the method of Bhunia et al. (1987. J. Indust. Microbiol. 2:319-322). Briefly, each protein sample was electrophoresed in a 10-20% SDS-PAGE gradient gel (Bio-Rad, Richmond, Calif.) as previously described (Laemmli et al. 1970. Nature. 227:680-685). After electrophoresis, SDS was removed by soaking the gel in 20% isopropanol-10% acetic acid in water for 2 h, followed by rinsing in distilled water for 4 h. The gel was then placed on a BHT-80 agar plate and overlaid with BHT-80 top agar (0.7% agar) containing C. renale. After incubation at 37° C. overnight, the plate/gel combination was examined for zones of growth inhibition.
# Bordetella brochoseptica = experiment: Inhibitory spectrum, bactericidal assay (plate method); assay type: cell-based; settings: B. bronchoseptica
# Bordetella pertussis = experiment: as above; assay type: cell-based; settings: Bordatella pertussis
# Corynebacterium renale = experiment: as above; assay type: cell-based; settings: C. renale compared with other sensitive organisms
# Haemophilus parasuis = experiment: as above; assay type: cell-based; settings: Hemophilus parasuis
# Moraxella bovis = experiment: as above; assay type: cell-based
# Pasteurella multocida = experiment: as above; assay type: cell-based
# Streptococcus suis = experiment: as above; assay type: cell-based
# S. aureus = experiment: Inhibitory spectrum, S. aureus; assay type: cell-based, Staphylococcus aureus
# [5] = test system: methicillin-resistant S. aureus (MRSA) strains; experiment: Additional analyses of the inhibitory spectrum; assay type: cell-based, Staphylococcus aureus; settings: ten MRSA strains tested
# [6] = test system: vancomycin-resistant strains of Enterococcus faecalis and E. faecium; experiment: Additional analyses of the inhibitory spectrum; assay type: cell-based; settings: remainder varying degrees of resistance
# C. renale [7] = settings: finally purified BacR1, 37° C., 5 h, A550
# [8] = crude preparation, Rogolsky et al. paper; cited from earlier work
# [9] = test system: Corynebacterium renale ATCC 19412; experiment: Bactericidal assay of BacR1 (plate method)
substance,measurement,setting,value
BacR1: 26-mer proteinaceous bacteriocin of approximately 3.4 kilodaltons produced by S. aureus UT0007; peptide sequence SEQ ID No. 3 (LGGAATGVIGYISNQTCPTTACTRAC),% Residual Activity,"[1]; 4° C., 15 min, 640 AU/ml",100%
same,% Residual Activity,"[1]; 25° C., 15 min, 640 AU/ml",100%
same,% Residual Activity,"[1]; 37° C., 15 min, 640 AU/ml",100%
same,% Residual Activity,"[1]; -20° C., 15 min, finally purified BacR1 640 AU/ml",100%
same,% Residual Activity,"[1]; pH 3 to 11, room temperature, 1 h, 640 AU/ml",100%
same,apparent average pI,[2],7.7
same,exposure time after which no viable cells were detected,C. renale [3]; BacR1 100 AU/ml,120 min
same,mode of action (bactericidal vs bacteriostatic),"C. renale [3]; prolonged incubation, cells do not recover",bactericidal
same,bactericidal activity in SDS-PAGE gel overlay,C. renale [4],possessed BacR1 activity
same,sensitivity to BacR1 (in words),Bordetella brochoseptica,killed; also recorded: sensitive
same,sensitivity to BacR1 (in words),Bordetella pertussis,sensitive
same,relative susceptibility,Corynebacterium renale,equally (and most) sensitive
same,sensitivity to BacR1 (in words),Haemophilus parasuis,sensitive
same,relative susceptibility,Moraxella bovis,equally (and most) sensitive
same,sensitivity to BacR1 (in words),Moraxella bovis; Moraxella bovis,especially sensitive
same,sensitivity to BacR1 (in words),Pasteurella multocida,killed
same,sensitivity to BacR1 (in words),Streptococcus suis,killed
same,sensitivity to BacR1 (in words),S. aureus; S. aureus,killed
same,relative susceptibility,S. aureus; S. aureus compared with other sensitive organisms,"susceptible, but required higher doses"
same,sensitivity to BacR1 (in words),[5],very sensitive
same,share of tested strains sensitive to BacR1,[6],About 40%
same,MIC50 (concentration that caused a 50% inhibition of growth),C. renale [7],approximately 6 AU/ml
same,maximum specific activity,[8],46 AU/mg
same,Specific Activity,[9]; purification stage: Ammonium Sulfate,1259 AU/mg
same,Specific Activity,[9]; purification stage: C4 Reverse-Phase (1st cycle),"16,642 AU/mg"
same,Specific Activity,"[9]; purification stage: C4 Reverse-Phase (2nd cycle), finally purified","37,450 AU/mg"
same,Specific Activity,[9]; purification stage: Cation Exchange,6963 AU/mg
same,Specific Activity,[9]; purification stage: Supernatant (1 L),152 AU/mg
